Usually IC50 stands for the concentration needed to halve the response being measured. Lower therefore signals greater potency in that assay.

The nature of assay [1]: Inhibitory concentration measured against the prostate cancer cell line DU145. Type of assay: functional, cell-based, Homo sapiens. Conditions: cancer cell lines; call rule not given here.
A short description of assay [2]: Inhibitory concentration measured against the prostate cancer cell line DU145; IA:Inactive. Conditions: cancer cell lines. It counts as functional, cell-based, Homo sapiens.

In turn, `COc1cc(C(=O)O[C@H](C(N)=O)[C@]2(C)CO2)c2cccc(C)c2c1` gave an IC50 in assay [1] of 50 nM.

In the case of `COc1cc(C(=O)NCCN2CCCC(O)C2)c2cccc(C)c2c1` (stereo not drawn), in assay [2], the IC50 entry is “Not Active”.

Regarding `COc1cc(C(=O)NCCN2CCCC(Cl)C2)c2cccc(C)c2c1` (stereo not drawn), the IC50 result in assay [2] is on record as “Not Active”.

The values are drawn from ChEMBL document CHEMBL1144283, “Truncated azinomycin analogues intercalate into DNA” (Bioorg Med Chem Lett, 2005).
